Source: patent US8338420B1, “Treatment of Parkinson's disease and enhancement of dopamine signal using PDE 10 inhibitor” (Mitsubishi Tanabe Pharma Corporation, priority 2002, dated 2012)

Columns and labels:
PDE10 (PDE10A) = experiment: Measurement of PDE10 inhibitory activity (radiolabeled nucleotide PDE assay); type: biochemical, bovine; conditions: versus PDE1, 2, 3, 4, 5, 6, 7, 8, 9 and 11; IC50 value of 1/100 or less
Description: (1) Enzyme Preparation of PDE10 (PDE10A)
According to the methods described in Fujishige et al. (Fujishige et al., Eur. J. Biochem., vol. 266, pp. 1118-1127, 1999; and Mukai et al., Br. J. Pharmacol., vol. 111, pp. 389-390, 1994), the enzyme PDE10A was isolated and prepared as follows.
At first, corpus striatum was excised from bovine whole brain (Japanese Black Cattle, purchased from Tokyo Shibaura Zoki, co., Ltd.), and washed with ice-cold saline (0.9% sodium chloride). After the tissues were cut in a proper size, it was frozen by liquid nitrogen, and stored at −80° C. […]
The PDE assay was performed using the enzyme solution obtained in the above (1), and inhibitory activities of the compounds on PDE10 (PDE10A) were measured. […]
After the reaction was carried out while keeping the temperature at 37° C. for 30 minutes, the reaction was stopped by boiling the reaction mixture for 2 minutes, and further added thereto was 100 μl of snake venom (Crotalus atrox snake venom 1 mg/ml) and the temperature was kept at 37° C. for 30 minutes. […] Scintillation cocktail was added to each of the eluates, and the radioactivity was measured by scintillation counter. From them, PDE activity taking cAMP as a substrate (an activity to hydrolyze cAMP) was measured. […]

marmoset MPTP model = experiment: Marmoset MPTP model, effect on L-dopa efficacy; type: in vivo; conditions: 0.3 mg/kg or 1 mg/kg, i.v., together with L-dopa, versus vehicle with L-dopa
Method: Using marmoset MPTP models, effects of test compound on pharmaceutical efficacy of L-dopa administration were tested as follows.
About 16 weeks before carrying out the tests, marmosets were administered with MPTP (1-methyl-4-phenyl-1,2,3,6-tetrahydropyridine) (2.5 mg/kg, i.v.), according to the method described in the literature (Fukuzaki et al., Pharmacol. Biochem. Behav., vol. 67 No. 1, pp. 121-129, September 2000), to degenerate dopaminergic neurons in the brain, and individuals showing parkinsonian symptoms were used.
Using these marmosets (age 3-4 years, bodyweight 300-400 g), the following three kinds of tests were performed. […]
After administration of test compound (PDE10 inhibitor) (or vehicle) and L-dopa+benserazide, each individual was transferred to an activity cage equipped with four photo cell sensor units, and observation was continued for 6 hours at longest. For each individual, locomotor activity and motor disability score were evaluated in every 10-minute interval.
Motor disability was assessed according to the following 7 evaluation items, and total score of the 7 items were regarded as the motor disability score. […]

COc1ccc(-c2cc(N3CCCC3)nc(/C=C/c3nc(-n4ccnc4)c4ccccc4n3)n2)cc1OC [Compound A, 2-{(E)-2-[4-(1-imidazolyl)-quinazolin-2-yl]}ethenyl-4-(3,4-dimethoxy)phenyl-6-(pyrrolidin-1-yl)pyrimidine]
inhibitory activity on PDE10 as compared to other PDE families (selectivity) (PDE10 (PDE10A)): ≥ 100 times | effects of L-dopa to alleviate symptoms (locomotor activity and motor disability score) (marmoset MPTP model): enhanced and/or prolonged duration of effects of L-dopa to alleviate symptoms
